In patent US7906551B2 (Rottapharm S.p.A., priority 2006, dated 2011):
Read-outs that look alike come from different tables or passages of the source.

What was measured:
low-density lipoprotein = settings: cited from earlier work
[1] = VIGOR trial; cited from earlier work
COX-2 = target: T1, COX-2 (Mus musculus, UniProt Q05769); assay: Assessment of COX-2 activity in LPS-stimulated J774 cells (PGE2 radioimmunoassay); type: cell-based, murine; settings: Table 2, Formula Ia
T1 construct: lipopolysaccharide (LPS, 10 μg/mL) to induce COX-2; endogenous in cells; host or cells: J774 murine monocyte/macrophage cell line, LPS-stimulated
T1 sequence (Q05769 18-604): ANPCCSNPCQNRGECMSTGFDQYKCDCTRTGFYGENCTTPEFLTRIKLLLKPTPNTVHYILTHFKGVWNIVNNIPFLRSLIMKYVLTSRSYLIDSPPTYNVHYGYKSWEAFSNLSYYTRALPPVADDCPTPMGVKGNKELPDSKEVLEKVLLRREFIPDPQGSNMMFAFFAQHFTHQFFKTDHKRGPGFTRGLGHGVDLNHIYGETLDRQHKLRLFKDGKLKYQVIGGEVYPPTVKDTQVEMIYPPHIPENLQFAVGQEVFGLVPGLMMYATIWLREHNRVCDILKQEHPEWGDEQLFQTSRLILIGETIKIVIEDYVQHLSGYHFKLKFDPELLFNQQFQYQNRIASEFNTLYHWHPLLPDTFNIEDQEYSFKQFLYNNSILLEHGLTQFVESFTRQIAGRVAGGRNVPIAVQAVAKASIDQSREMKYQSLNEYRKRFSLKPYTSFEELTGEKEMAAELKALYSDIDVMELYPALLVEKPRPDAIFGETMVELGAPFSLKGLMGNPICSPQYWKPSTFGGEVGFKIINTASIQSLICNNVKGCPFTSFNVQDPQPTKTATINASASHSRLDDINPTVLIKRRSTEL
Experimental: Cells were stimulated for 24 h with E. coli lipopolysaccharide (LPS, 10 μg/mL) to induce COX-2, in the absence or presence of test compounds, at the concentrations previously reported. The supernatants were collected for the measurement of PGE2 by radioimmunoassay.
Analysis. Throughout the time the experiments lasted, triplicate wells were used for the various conditions of treatment. Results are expressed as the mean, for 3 experiments, of the % inhibition of PGE2 production by test compounds with respect to control samples. Data fit was obtained using the sigmoidal dose-response equation (variable slope). The IC50 were calculated by GraphPad Instat program (GraphPad software).

glaucomatous rabbits = settings: not COX-2 dependent effect; cited from earlier work
[2] = study whether Celecoxib could treat AD; cited from earlier work
[3] = system: rat model of edema induced by carragenine; assay: Carrageenan-induced paw edema; type: in vivo; settings: 1 h, 60 min, read-out: Edema inhibition 60 min, MPE
Experimental: (§1) Male Swiss albino mice (23-25 g) and Sprague Dawley or Wistar rats (150-200 g) were used. The animals were fed a standard laboratory diet and tap water ad libitum and kept at 23±1° C. with a 12 h light/dark cycle, light on at 7 a.m.
Rats paw volumes were measured using a plethysmometer. Rats received the investigated compounds 4 hours after a 0.1-ml injection of 1.0% carrageenan in the right hind paw. Five hours after the injection of carrageenan (i.e. 1 hour after the administration of the investigated compound), the paw volume of the right hind paw was measured and compared with saline/carrageenan-treated controls. Results are reported as maximum percent effect (MPE), see below for detailed explanation.

[4] = system: rat model of hyperalgesia induced by carragenine; assay: Paw pressure test, hyperalgesia induced by carragenine; type: in vivo
Experimental: as §1
The nociceptive threshold in the rat was determined with an analgesimeter, according to the method described by Leighton et al, G. E.; Br. J. Pharmacol. 1988, 93, 553-560. Threshold pressure was measured before and 30, 60 and 120 min after treatment. An arbitrary cut-off value of 250 g was adopted. In order to induce an inflammatory process in the rat paw carrageenan (0.1 ml, 1%) was administered i.p. 4 h before test.

[5] = system: rat model of edema induced by Zymosan; assay: Zymosan-induced paw edema; type: in vivo; settings: oral, 3 mg/Kg
Experimental: as §1
(§2) The interplantar injection of Zymosan-induced mechanical hyperalgesia may be used as a model of inflammatory pain (Meller, Neuropharmacology, 1994, 33, 1471-1478). In this model, typically a male Sprague-Dawely or Wistar rat (200-250 g) receives an interplantar injection of 4 mg/100 μl zymosan into one hind paw. A marked inflammation occurs in this hind paw. Drugs are administered orally for evaluation of efficacy, 30 min. before the inflammatory insult. The hyperalgesia induced by zymosan administration was evaluated using the Randal-Selitto method (Arch. Int. Pharmacodyn., 1957, 111, 409). The quantitation of the analgesic effect is achieved by an analgesimeter, which consist in applying to the inflamed paw an increasing weight (from 130-140 g up to 500 g). The difference in the mechanical pain threshold between the basal value (generally 230-250 g) and the one tolerated by the animals treated with the drug, determined 4 hours after the inflammatory challenge, is defined as mechanical hyperalgesia.
In vivo anti-inflammatory effect exerted by the compounds of the invention can be assessed in the same Zymosan induced inflammation test described above, by measuring the volume of the oedema induced by the inflammatory agent. The oedema was evaluated as the increase in the volume of the Zymosan injected paw within a time of 0-2 hrs. The measurements of the variation of the oedema volume of the paw were recorded using hydroplethysmometer. Results are expressed as MPE, maximum percent effect, that in this case represents the reduction (%) in the oedema of treated animals in comparison to controls (animals treated with Zymosan, which received only the vehicle).

[6] = system: rat model of hyperalgesia induced by Zymosan; assay: Zymosan-induced hyperalgesia (Randal-Selitto); type: in vivo; settings: oral, 3 mg/Kg
Experimental: as §1, §2
Mechanical hyperalgesia is expressed for the compounds of the invention as maximum percent effect (MPE) which represents the difference (%) in pain threshold between the animals treated with the drug and the controls that received only the vehicle.
Results are reported as MPE (reduction of the nociceptive effect, due to paw loading with increasing weight, in comparison to controls). 100% MPE means that the animal treated with the compound and Zymosan can tolerate the same stimulus (weight) as the control animals which have not received Zymosan treatment. MPE higher than 100% mean that the animal treated with the compound and Zymosan can tolerate stimuli (weight) higher than the control animals, which has not received Zymosan treatment (hypoalgesia).

[7] = system: mouse abdominal constriction (writhing); assay: Mouse abdominal constriction test (acetic acid 0.6%), writhing test; type: in vivo; settings: mice, 30 min before test, control 38.1 ± 2.6
Experimental: as §1
Mice were injected i.p. with a 0.6% solution of acetic acid (10 ml/kg), according to Koster et al. Fed. Proc., 1959, 18, 412. The number of stretching movements was counted for 10 min, starting 5 min after acetic acid injection.

[8] = 0.5 h, 30 min, read-out: Analgesia 30 min MPE
[9] = 1 h, 60 min, read-out: Analgesia 60 min MPE

| Structure (SMILES) | COX-1/COX-2 Selectivity Index (IC50 ratio) (COX-2) | inhibition in vivo at 20 mg/kg [3] [%] | inhibition in vivo at 20 mg/kg [4, 8] [%] | inhibition in vivo at 20 mg/kg [4, 9] [%] | melting point [°C] | Number of writhes ([7]; 20 mg/Kg s.c.) | further results |
| --- | --- | --- | --- | --- | --- | --- | --- |
| CS(=O)(=O)c1ccc(C2=C(c3ccccc3)C(=O)OC2)cc1 [Rofecoxib] | >800 |  |  |  |  |  | susceptibility of low-density lipoprotein to oxidative modifications (low-density lipoprotein): increases susceptibility; incidence of acute myocardial infarction, Rofecoxib arm compared with the Naproxen arm [1]: five-fold increase; effect on intraocular pressure (glaucomatous rabbits): had no effect |
| Cc1ccc(-c2cc(C(F)(F)F)nn2-c2ccc(S(N)(=O)=O)cc2)cc1 [Celecoxib] |  | 95 | 73 | 81 |  |  | incidence of heart attack in the treated group in comparison to placebo [2]: four times higher; susceptibility of low-density lipoprotein to oxidative modifications (low-density lipoprotein): had no effect; Edema 0-6 hrs MPE [5]: 24.8%; Analgesia 0-2 hrs MPE [6]: 30%; Analgesia 0-6 hrs MPE [6]: 35% |
| COc1ccc(-n2c(-c3ccc(S(C)(=O)=O)cc3)cc(CC(=O)OC(C)C)c2C)cc1 [Example 3, Isopropyl[1-(4-methoxy)phenyl-2-methyl-5-(4-methylsulphonyl)phenyl-1H-pyrrol-3-yl]acetate] | >4500 | 77 | 67 | 90 | 138 | 18.5 ± 3.5 |  |
| Cc1onc(-c2ccccc2)c1-c1ccc(S(N)(=O)=O)cc1 [Valdecoxib] |  |  |  |  |  |  | effect on intraocular pressure (glaucomatous rabbits): reduce intraocular pressure |
| Cc1c(CC(=O)OC(C)C)cc(-c2ccc(S(C)(=O)=O)cc2)n1-c1ccccc1 [Example 1, Isopropyl[2-methyl-5-(4-methylsulphonyl)phenyl-1-phenyl-1H-pyrrol-3-yl]acetate] |  |  |  |  | 160 |  | inhibition in vivo at 5 mg/kg ([3]; 5 mg/Kg): 100%; inhibition in vivo at 5 mg/kg [4, 8]: 80%; inhibition in vivo at 5 mg/kg [4, 9]: 60%; Edema 0-2 hrs MPE [5]: 20%; Edema 0-6 hrs MPE [5]: 15%; Number of writhes ([7]; 5 mg/Kg s.c.): 28.5 ± 3.3; Analgesia 0-2 hrs MPE [6]: 75%; Analgesia 0-6 hrs MPE [6]: 70% |
| Cc1c(CC(=O)OC(C)C)cc(-c2ccc(S(C)(=O)=O)cc2)n1-c1ccc(F)c(F)c1 [Example 2, Isopropyl[1-(3,4-difluoro)phenyl-2-methyl-5-(4-methylsulphonyl)phenyl-1H-pyrrol-3-yl]acetate] | >4700 | 91 | 100 | 70 | 143 | 21.5 ± 3.9 |  |
| CCCCOC(=O)Cc1cc(-c2ccc(S(C)(=O)=O)cc2)n(-c2ccc(F)c(F)c2)c1C [Example 5, n-Butyl[1-(3,4-difluoro)phenyl-2-methyl-5-(4-methylsulphonyl)phenyl-1H-pyrrol-3-yl]acetate] | >3300 | 74 | 76 | 100 | 112 | 13.7 ± 4.0 |  |
| Cc1c(CC(=O)OC(C)C)cc(-c2ccc(S(C)(=O)=O)cc2)n1-c1cccc(F)c1 [Example 4, Isopropyl[1-(3-fluoro)phenyl-2-methyl-5-(4-methylsulphonyl)phenyl-1H-pyrrol-3-yl]acetate] | >2300 | 87 | 84 | 80 | 100 | 17.7 ± 2.9 |  |
